The test system of the assay is HMOX1. The assay can be described thus: HMOX1 Protein Assay (immunostaining of HO-1 in NHLF cells, GE InCell 1000). The assay is classed as cell-based. The following applies: Homo sapiens, fold change above DMSO treated cells, 16 h; for fold induction at 5 µM: 5 μM compound; for fold induction at 3 µM: 3 μM compound (asterisk). In outline: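 NHLF cells seeded overnight in FGM-2, then exposed to compound or DMSO vehicle for 16 h, fixed, and immunostained for HO-1 with Hoechst nuclear counterstain; imaged on InCell 1000. Values are fold change over DMSO-treated cells, generally at 5 μM (0.8% DMSO), with asterisked entries at 3 μM.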

Structures can show the parent of a compound that is named as a salt.

The fold induction is the signal under treatment as a multiple of the control signal. The compound `CCNC(=O)[C@H](C)NC(=O)c1ccc2c(c1)nc(Nc1nc3ccc(OC(F)(F)F)cc3s1)n2C` [Example 81, 1-Methyl-2-(6-trifluoromethoxy-benzothiazol-2-ylamino)-1H-benzoimidazole-5-carboxylic acid ((S)-1-ethylcarbamoyl-ethyl)-amide] showed a fold induction at 5 µM of 17.

For `Cn1c(Nc2nc3ccc(OC(F)(F)F)cc3s2)nc2cc(C(=O)N[C@@H]3C[C@H](CO)[C@@H](O)[C@H]3O)ccc21` [Example 282, 1-Methyl-2-(6-trifluoromethoxy-benzothiazol-2-ylamino)-1H-benzoimidazole-5-carboxylic acid ((1R,2S,3R,4R)-2,3-dihydroxy-4-hydroxymethyl-cyclopentyl)-amide], the fold induction at 5 µM came out at 51.7.

`CO[C@H]1CCCN(C(=O)CNC(=O)c2ccc3c(c2)nc(Nc2nc4ccc(C(F)(F)F)cc4s2)n3C)C1` [Example 445, 1-Methyl-2-(6-trifluoromethyl-benzothiazol-2-ylamino)-1H-benzoimidazole-5-carboxylic acid [2-((S)-3-methoxy-piperidin-1-yl)-2-oxo-ethyl]-amide] showed a fold induction at 3 µM of 36.4.

`Cn1c(Nc2nc3ccc(OC(F)(F)F)cc3s2)nc2cc(C(=O)NCC3CC3)ccc21` [Example 5, 1-Methyl-2-(6-trifluoromethoxy-benzothiazol-2-ylamino)-1H-benzoimidazole-5-carboxylic acid cyclopropylmethyl-amide] displayed a fold induction at 5 µM of 8.33.

Turning to `Cn1c(Nc2nc3ccc(C(F)(F)F)cc3s2)nc2cc(C(=O)NCC(=O)N3CC[C@H](O)C3)ccc21` [Example 403, 1-Methyl-2-(6-trifluoromethyl-benzothiazol-2-ylamino)-1H-benzoimidazole-5-carboxylic acid [2-((S)-3-hydroxy-pyrrolidin-1-yl)-2-oxo-ethyl]-amide], the fold induction at 3 µM came out at 24.8.

The compound `CO[C@@H]1CCCN(C(=O)CNC(=O)c2ccc3c(c2)nc(Nc2nc4ccc(C(F)(F)F)cc4s2)n3C)C1` [Example 446, 1-Methyl-2-(6-trifluoromethyl-benzothiazol-2-ylamino)-1H-benzoimidazole-5-carboxylic acid [2-((R)-3-methoxy-piperidin-1-yl)-2-oxo-ethyl]-amide] displayed a fold induction at 3 µM of 31.3.

The compound `COC(=O)c1ccc2c(c1)nc(Nc1nc3ccc(S(C)(=O)=O)cc3s1)n2C` [Example 113, 2-(6-Methanesulfonyl-benzothiazol-2-ylamino)-1-methyl-1H-benzoimidazole-5-carboxylic acid methyl ester] returned a fold induction at 5 µM of 27.6.

Compound `COCCNC(=O)c1cc2nc(Nc3nc4ccc(OC(F)(F)F)cc4s3)n(C)c2cc1F` [Example 39, 6-Fluoro-1-methyl-2-(6-trifluoromethoxy-benzothiazol-2-ylamino)-1H-benzoimidazole-5-carboxylic acid (2-methoxy-ethyl)-amide] had a fold induction at 5 µM of 18.2.

The compound `CCn1c(Nc2nc3ccc(Oc4cccnc4)cc3s2)nc2cc(C(=O)NCCOC)ccc21` [Example 191, 1-Ethyl-2-[6-(pyridin-3-yloxy)-benzothiazol-2-ylamino]-1H-benzoimidazole-5-carboxylic acid (2-methoxy-ethyl)-amide] gave a fold induction at 5 µM of 33.8.

`C[C@@H](NC(=O)c1ccc2c(c1)nc(Nc1nc3ccc(C(F)(F)F)cc3s1)n2C)C(=O)N1CCN(C)CC1` [Example 470, 1-Methyl-2-(6-trifluoromethyl-benzothiazol-2-ylamino)-1H-benzoimidazole-5-carboxylic acid [(R)-1-methyl-2-(4-methyl-piperazin-1-yl)-2-oxo-ethyl]-amide] displayed a fold induction at 3 µM of 24.5.

The compound `Cn1c(Nc2nc3ccc(OC(F)(F)F)cc3s2)nc2cc(C(=O)O)cnc21` [Example 72, 3-Methyl-2-(6-trifluoromethoxy-benzothiazol-2-ylamino)-3H-imidazo[4,5-b]pyridine-6-carboxylic acid] had a fold induction at 5 µM of 11.9.

In the case of `CN1CCN(CCCNC(=O)c2ccc3c(c2)nc(Nc2nc4ccc(C(F)(F)F)cc4s2)n3C)CC1` [Example 357, 1-Methyl-2-(6-trifluoromethyl-benzothiazol-2-ylamino)-1H-benzoimidazole-5-carboxylic acid [3-(4-methyl-piperazin-1-yl)-propyl]-amide], the fold induction at 3 µM was determined as 22.

Regarding `Cn1c(Nc2nc3ccc(OC(F)(F)F)cc3s2)nc2cc(C(=O)NCC3CNCCO3)ccc21` (centres unmarked) [Example 56, 1-Methyl-2-(6-trifluoromethoxy-benzothiazol-2-ylamino)-1H-benzoimidazole-5-carboxylic acid (morpholin-2-ylmethyl)-amide hydrochloride], the fold induction at 5 µM was 16.1.

`Cn1c(Nc2nc3ccc(C(F)(F)F)cc3s2)nc2cc(C(=O)NCCO)ccc21` [Example 27, 1-Methyl-2-(6-trifluoromethyl-benzothiazol-2-ylamino)-1H-benzoimidazole-5-carboxylic acid (2-hydroxy-ethyl)-amide]: the fold induction at 5 µM is 23.2.

The compound `CCOC(=O)c1cnc2c(c1)nc(Nc1nc3ccc(OC(F)(F)F)cc3s1)n2C` [Example 71, 3-Methyl-2-(6-trifluoromethoxy-benzothiazol-2-ylamino)-3H-imidazo[4,5-b]pyridine-6-carboxylic acid ethyl ester] registered a fold induction at 5 µM of 4.2.

On to `CN1CCN(C(=O)CNC(=O)c2ccc3c(c2)nc(Nc2nc4ccc(OC(F)(F)F)cc4s2)n3C)CC1` [Example 137, 1-Methyl-2-(6-trifluoromethoxy-benzothiazol-2-ylamino)-1H-benzimidazole-5-carboxylic acid [2-(4-methyl-piperazin-1-yl)-2-oxo-ethyl]-amide], for which the fold induction at 5 µM came to 6.

Turning to `CCOCCNC(=O)c1ccc2c(c1)nc(Nc1nc3cc(F)c(F)cc3s1)n2C` [Example 87, 2-(5,6-Difluoro-benzothiazol-2-ylamino)-1-methyl-1H-benzoimidazole-5-carboxylic acid (2-ethoxy-ethyl)-amide], the fold induction at 5 µM amounted to 12.1.

`Cn1c(Nc2nc3ccc(OC(F)(F)F)cc3s2)nc2cc(C(=O)NCCOCCNS(C)(=O)=O)ccc21` [Example 276, 1-Methyl-2-(6-trifluoromethoxy-benzothiazol-2-ylamino)-1H-benzoimidazole-5-carboxylic acid [2-(2-methanesulfonylamino-ethoxy)-ethyl]-amide]: the fold induction at 5 µM turned out to be 61.2.

As to `Cn1c(Nc2nc3ccc(OC(F)(F)F)cc3s2)nc2cc(C(=O)NC3CCN(C(=O)OC(C)(C)C)CC3)ccc21` [Example 92, 4-{[1-Methyl-2-(6-trifluoromethoxy-benzothiazol-2-ylamino)-1H-benzoimidazole-5-carbonyl]-amino}-piperidine-1-carboxylic acid tert-butyl ester], the fold induction at 5 µM is 3.4.

On to `CN(C)CC(=O)N1CCC[C@@H](NC(=O)c2ccc3c(c2)nc(Nc2nc4ccc(Cl)cc4s2)n3C)C1` [Example 311, 2-(6-Chloro-benzothiazol-2-ylamino)-1-methyl-1H-benzoimidazole-5-carboxylic acid [(R)-1-(2-dimethylamino-acetyl)-piperidin-3-yl]-amide], for which the fold induction at 5 µM came to 77.3.

On to `Cn1c(Nc2nc3ccc(Cl)cc3s2)nc2cc(C(=O)NCCO)ccc21` [Example 30, 2-(6-Chloro-benzothiazol-2-ylamino)-1-methyl-1H-benzoimidazole-5-carboxylic acid (2-hydroxy-ethyl)-amide], for which the fold induction at 5 µM is 21.4.

`COCCn1c(Nc2nc3ccc(Cl)cc3s2)nc2cc(C(=O)NCC(=O)N3CC[C@@H](O)C3)ccc21` [Example 404, 2-(6-Chloro-benzothiazol-2-ylamino)-1-(2-methoxy-ethyl)-1H-benzoimidazole-5-carboxylic acid [2-((R)-3-hydroxy-pyrrolidin-1-yl)-2-oxo-ethyl]-amide]: the fold induction at 5 µM was found to be 26.1.

As for `Cn1c(Nc2nc3ccc(Cl)cc3s2)nc2cc(C(=O)NCCN3CCNCC3)ccc21` [Example 339, 2-(6-Chloro-benzothiazol-2-ylamino)-1-methyl-1H-benzoimidazole-5-carboxylic acid (2-piperazin-1-yl-ethyl)-amide hydrochloride], the fold induction at 3 µM stood at 10.6.

Regarding `Cn1c(Nc2nc3ccc(C(F)(F)F)cc3s2)nc2cc(C(=O)NCCF)ccc21` [Example 210, 1-Methyl-2-(6-trifluoromethyl-benzothiazol-2-ylamino)-1H-benzoimidazole-5-carboxylic acid (2-fluoro-ethyl)-amide], the fold induction at 3 µM came out at 29.9.

Turning to `Cn1c(Nc2nc3ccc(OC(F)(F)F)cc3s2)nc2cc(C(=O)NCC3CCOCC3)ccc21` [Example 17, 1-Methyl-2-(6-trifluoromethoxy-benzothiazol-2-ylamino)-1H-benzoimidazole-5-carboxylic acid (tetrahydro-pyran-4-ylmethyl)-amide], the fold induction at 5 µM came to 21.4.

With `COCCNC(=O)c1ccc2c(c1)nc(Nc1nc3ccc(C(F)(F)F)cc3s1)n2C` [Example 25, 1-Methyl-2-(6-trifluoromethyl-benzothiazol-2-ylamino)-1H-benzoimidazole-5-carboxylic acid (2-methoxy-ethyl)-amide], the fold induction at 5 µM came to 27.1.

`CSCCNC(=O)c1ccc2c(c1)nc(Nc1nc3ccc(S(C)(=O)=O)cc3s1)n2C` [Example 130, 2-(6-Methanesulfonyl-benzothiazol-2-ylamino)-1-methyl-1H-benzimidazole-5-carboxylic acid (2-methylsulfanyl-ethyl)-amide] registered a fold induction at 5 µM of 5.3.

On to `CNC(=O)c1ccc2c(c1)nc(Nc1nc3cc(OC(F)(F)F)ccc3s1)n2C` [Example 115, 1-Methyl-2-(5-trifluoromethoxy-benzothiazol-2-ylamino)-1H-benzimidazole-5-carboxylic acid methylamide], for which the fold induction at 5 µM turned out to be 1.5.

As to `COCCn1c(Nc2nc3ccc(Cl)cc3s2)nc2cc(C(=O)NC3CCN(CCO)CC3)ccc21` [Example 301, 2-(6-Chloro-benzothiazol-2-ylamino)-1-(2-methoxy-ethyl)-1H-benzoimidazole-5-carboxylic acid [1-(2-hydroxy-ethyl)-piperidin-4-yl]-amide], the fold induction at 5 µM turned out to be 27.8.

The record behind these values is patent publication US8759535B2, “Substituted fused imidazole derivatives, pharmaceutical compositions, and methods of use thereof” (High Point Pharmaceuticals, LLC, priority 2010, dated 2014).
